Values after ≈ are worked out from the molar mass of the structure shown. Structures can show the parent of a compound that is named as a salt.
How the values were obtained:
[1] = system: guinea pig; assay: Infiltration anaesthetic action; type: in vivo; settings: relative to procaine = 1; guinea pig (male, about 400 g); method of Bulbring et al
Experimental: 2. Infiltration anaesthetic action
The test was performed essentially by the method described by E. Bulbring et al in "Journal of Pharmacology and Experimental Therapeutics", vol. 85, 78-84 (1945), using guinea pig (male, about 400 g).

[2] = system: guinea pig; assay: Surface anaesthetic action; type: in vivo; settings: relative to procaine = 1; guinea pig (male, about 400 g); method of Chance et al
Experimental: 3. Surface anaesthetic action
The test was performed essentially by the method described by M.R.A. Chance et al in "Journal of Pharmacology and Experimental Therapeutics", vol. 82, 203-210 (1944), using guinea pig (male, about 400 g).

[3] = system: isolated guinea pig atria; assay: Antiarrhythmic action on functional refractory period; type: cell-based; settings: method of Zetler et al; for EC50: Cavia porcellus
Experimental: 1. Antiarrhythmic action on functional refractory period
The test was performed essentially by the method described by G. Zetler et al in "Naunyn-Schmiedebergs Archiv fur Pharmakologie", vol. 271, 335-345 (1971), using isolated guinea pig atria.

Structure (SMILES) | Efficiency Rate (procaine = 1), infiltration anaesthetic action [1] | Efficiency Rate (procaine = 1), surface anaesthetic action [2] | EC50 (antiarrhythmic action on functional refractory period) [3] | EC50 [3] [µg/mL]
CC1(C)CCCC(C)(C)N1CC(O)COc1ccccc1OCc1ccco1 (centres unmarked) [H] | 51.7 | – | – | –
CC1CCCCN1CC(O)COc1ccccc1Cc1cccs1 (centres unmarked) [K] | 167.5 | – | – | –
Cc1ccccc1OCC(O)CN1C(C)(C)CCC1(C)C (centres unmarked) [Lotucaine, 1-(2,2,5,5-tetramethylpyrrolidin-1-yl)-3-(o-tolyloxy)-2-propanolhydrochloride, reference compound] | 11.3 | 11.1 | no effect | –
CC1(C)CCCC(C)(C)N1CC(O)COc1ccccc1Cc1cccs1 (centres unmarked) [J] | 35.6 | – | – | –
CC1(C)CCC(C)(C)N1CC(O)COc1ccccc1OCc1ccco1 (centres unmarked) [C] | – | 30.0 | – | 13 (≈ 34.8 µM)
CC1(C)CCCC(C)(C)N1CC(O)COc1ccccc1Cc1ccccn1 (centres unmarked) [E] | – | – | – | 22 (≈ 57.5 µM)
CC1(C)CCCC(C)(C)N1CC(O)COc1ccccc1OCC1CCCO1 (centres unmarked) [B] | – | 26.7 | – | 17 (≈ 43.4 µM)
CC1(C)CCCC(C)(C)N1CC(O)COc1ccccc1Oc1ccccn1 (centres unmarked) [F] | – | – | – | 12 (≈ 31.2 µM)
CC1CCCC(C)N1CC(O)COc1ccccc1Cc1cccs1 (centres unmarked) [I] | 98.7 | 27.1 | – | –
CC1CCCCN1CC(O)COc1ccc(Cc2cccs2)cc1 (centres unmarked) [L] | – | 23.9 | – | –
COCCOc1ccccc1OCC(O)CN1C(C)(C)CCCC1(C)C (centres unmarked) [A] | – | – | – | 24 (≈ 65.7 µM)
CSCCOc1ccccc1OCC(O)CN1C(C)(C)CCCC1(C)C (centres unmarked) [D] | – | 27.2 | – | 15 (≈ 39.3 µM)
CC1CCCC(C)N1CC(O)COc1ccccc1OCc1cccs1 (centres unmarked) [G] | – | 23.6 | – | 18 (≈ 47.9 µM)
